Structures can show the parent of a compound that is named as a salt.
| melting point | SMILES |
| --- | --- |
| 250 °C | CCNCC(=O)Nc1cccc2c1C(=O)c1c-2n[nH]c1-c1ccc(OC)cc1 [Example XXXI, 3-(4-methoxyphenyl)-5-(ethylaminoacetamido)indeno[1,2-c]pyrazol-4-one] |
| 289 °C | COc1ccc(-c2[nH]nc3c2C(=O)c2c(NC(=O)C4CC4)cccc2-3)cc1 [Example III, 3-(4-methoxyphenyl)-5-(cyclopropanecarboxamido)indeno[1,2-c]pyrazol-4-one] |
| > 300 °C | COc1ccc(-c2[nH]nc3c2C(=O)c2c(NC(=S)NN4CCN(C)CC4)cccc2-3)cc1 [Example LXXXVI, 3-(4-methoxyphenyl)-5-((4-methylpiperazino)thionocarbamoylamino)indeno[1,2-c]pyrazol-4-one] |
| 224 °C | CC(C)c1[nH]nc2c1C(=O)c1c(NC(=O)CN3CCC(C(N)=O)CC3)cccc1-2 [Example CXV, 3-(i-propyl)-5-((4-carbamoylpiperidino)acetamido)indeno [1,2-c]pyrazol-4-one] |
| > 300 °C | COc1ccc(-c2[nH]nc3c2C(=O)c2c(NC(=O)NN4CCOCC4)cccc2-3)cc1 [Example LXVI, 3-(4-methoxyphenyl)-5-((morpholinocarbamoyl)amino)indeno[1,2-c]pyrazol-4-one] |
| 218 °C | COC(C)(C)[C@@H]1CCCN1NC(=O)Nc1cccc2c1C(=O)c1c-2n[nH]c1-c1ccc(N2CCNCC2)cc1 (as salt: TFA) [Example CCXXXII, 3-(4-piperazinophenyl)-5-((2(S)-(1-methoxy-1-methylethyl)pyrrolidino)carbamoylamino)indeno[1,2-c]pyrazol-4-one] |
| > 300 °C | COc1ccc(-c2[nH]nc3c2C(=O)c2c(NC(N)=O)cccc2-3)cc1 [Example LXIII, 3-(4-methoxyphenyl)-5-(carbamoylamino)indeno[1,2-c]pyrazol-4-one] |
| 267 °C | CN(C)c1ccc(-c2[nH]nc3c2C(=O)c2c(NC(=O)CN4CCC(O)CC4)cccc2-3)cc1 [Example LXXX, 3-(4-(N,N-dimethylamino)phenyl)-5-(4-hydroxypiperidinoacetamido)indeno[1,2-c]pyrazol-4-one] |
| 279 °C | COc1ccc(-c2[nH]nc3c2C(=O)c2c(NC(=O)CN4CCCC4)cccc2-3)cc1 [Example XXXIV, 3-(4-methoxyphenyl)-5-(pyrrolidinoacetamido)indeno[1,2-c]pyrazol-4-one] |
| > 300 °C | COc1ccc(-c2[nH]nc3c2C(=O)c2c(NC(=O)CN4CCC(CN)CC4)cccc2-3)cc1 [Example XXX, 3-(4-methoxyphenyl)-5-(4-(aminomethyl)piperidinoacetamido)indeno[1,2-c]pyrazol-4-one] |

Further lines, the compound ahead of its results:

| SMILES | melting point |
| --- | --- |
| O=C(Nc1cccc2c1C(=O)c1c-2n[nH]c1-c1ccc(N2CCC(N3CCCCC3)CC2)cc1)NN1CCOCC1 (as salt: TFA) [Example CCL, 3-(4-(4-piperidinopiperidino)phenyl)-5-(morpholinocarbamoylamino)indeno[1,2-c]pyrazol-4-one] | 233 °C |
| CN1CCN(NC(=O)Nc2cccc3c2C(=O)c2c-3n[nH]c2-c2ccc(N3CCN(C)CC3)cc2)CC1 (as salt: TFA) [Example CCXXIV, 3-(4-(4-methylpiperazino)phenyl)-5-((4-methylpiperazino)carbamoylamino)indeno[1,2-c]pyrazol-4-one] | 293 °C |
| Cn1ccc(-c2[nH]nc3c2C(=O)c2c(NC(N)=O)cccc2-3)c1 [Example LXXXVIX, 3-(1-methyl-3-pyrrolyl)-5-(carbamoylamino)indeno[1,2-c]pyrazol-4-one] | 269 °C |
| Cc1ccsc1-c1[nH]nc2c1C(=O)c1c(NC(N)=O)cccc1-2 [Example XCVII, 3-(3-methyl-2-thienyl)-5-(carbamoylamino)indeno[1,2-c]pyrazol-4-one] | 270 °C |
| NC1CCCC(C(=O)N2CCC(c3[nH]nc4c3C(=O)c3c(NC(=O)NN5CCOCC5)cccc3-4)CC2)C1 (stereo not shown) (as salt: TFA) [Example CCXC, 3-(1-(3-aminocyclohexylcarbonyl)piperidin-4-yl)-5-(morpholinocarbamoylamino)indeno[1,2-c]pyrazol-4-one] | 201 °C |
| O=C(Nc1cccc2c1C(=O)c1c-2n[nH]c1-c1ccc(N2CCC(N3CCCC3)CC2)cc1)NN1CCOCC1 (as salt: TFA) [Example CCLI, 3-(4-(4-pyrrolidinopiperidino)phenyl)-5-(morpholinocarbamoylamino)indeno[1,2-c]pyrazol-4-one] | 247 °C |
| CN(C)C1CCN(C(=O)c2ccc(-c3[nH]nc4c3C(=O)c3c(NC(=O)NN5CCOCC5)cccc3-4)s2)CC1 (as salt: TFA) [Example CLVIII, 3-(5-(4-(N,N-dimethylamino)piperidinocarbonyl)-2-thienyl)-5-(morpholinocarbamoylamino)indeno[1,2-c]pyrazol-4-one] | 185 °C |
| O=C(Nc1cccc2c1C(=O)c1c-2n[nH]c1-c1ccc(C(=O)N2CCN(CCO)CC2)s1)NN1CCOCC1 (as salt: TFA) [Example CLII, 3-(5-(4-(2-hydroxyethyl)piperazinocarbonyl)-2-thienyl)-5-(morpholinocarbamoylamino)indeno[1,2-c]pyrazol-4-one] | 186 °C |
| NC(=O)Nc1cccc2c1C(=O)c1c-2n[nH]c1-c1csc(Cl)c1 [Example CI, 3-(5-chloro-3-thienyl)-5-(carbamoylamino)indeno[1,2-c]pyrazol-4-one] | > 300 °C |
| O=C(Nc1cccc2c1C(=O)c1c-2n[nH]c1-c1ccc(C(=O)N2CCN(CC3CC3)CC2)s1)NN1CCOCC1 (as salt: TFA) [Example CLIII, 3-(5-(4-(cyclopropylmethyl)piperazinocarbonyl)-2-thienyl)-5-(morpholinocarbamoylamino)indeno[1,2-c]pyrazol-4-one] | 211 °C |
| CCOC(=O)N1CCC(c2[nH]nc3c2C(=O)c2c(NC(=O)NN4CCOCC4)cccc2-3)CC1 (as salt: TFA) [Example CCLXII, 3-(1-ethoxycarbonylpiperidin-4-yl)-5-(morpholinocarbamoylamino)indeno[1,2-c]pyrazol-4-one] | 206 °C |
| CCc1[nH]nc2c1C(=O)c1c(NC(N)=O)cccc1-2 [Example XCI, 3-(ethyl)-5-(carbamoylamino)indeno[1,2-c]pyrazol-4-one] | > 250 °C |
| CN1C[C@@H]2C[C@@]1(C(=O)c1ccc(-c3[nH]nc4c3C(=O)c3c(NC(=O)NN5CCOCC5)cccc3-4)s1)CN2 (as salt: TFA) [Example CLVII, 3-(5-(((1S,4S)-(+)-2-methyl-2,5-diazabicyclo[2.2.1]heptyl)carbonyl)-2-thienyl)-5-(morpholinocarbamoylamino)indeno[1,2-c]pyrazol-4-one] | 244 °C |
| COC[C@H]1CCCN1NC(=O)Nc1cccc2c1C(=O)c1c-2n[nH]c1-c1ccc(C(=O)N2CCNCC2)s1 (as salt: TFA) [Example CCIV, 3-(5-piperazinocarbonyl-2-thienyl)-5-(2(R)-(methoxymethyl)pyrrolidinocarbamoylamino)indeno[1,2-c]pyrazol-4-one] | > 300 °C |
| CN(C)C1CCN(C(=O)c2ccc(-c3[nH]nc4c3C(=O)c3c(NC(=O)NN5CCOCC5)cccc3-4)s2)C1 (stereo not shown) (as salt: TFA) [Example CLXXX, 3-(5-(3-(N,N-dimethylamino)pyrrolidinocarbonyl)-2-thienyl)-5-(morpholinocarbamoylamino)indeno[1,2-c]pyrazol-4-one] | 216 °C |
| O=C(Nc1cccc2c1C(=O)c1c-2n[nH]c1C1CCN(C(=O)N2CCNCC2)CC1)NN1CCOCC1 (as salt: TFA) [Example CCLXX, 3-(1-(piperazinocarbonyl)piperidin-4-yl)-5-(morpholinocarbamoylamino)indeno[1,2-c]pyrazol-4-one] | 195 °C |
| CNc1ccc(NC(=O)c2ccc(-c3[nH]nc4c3C(=O)c3c(NC(=O)NN5CCOCC5)cccc3-4)s2)cc1 (as salt: TFA) [Example CXCVI, 3-(5-((4-methylaminophenyl)aminocarbonyl)-2-thienyl)-5-(morpholinocarbamoylamino)indeno[1,2-c]pyrazol-4-one] | 230 °C |
| CC(C)N1CCN(c2ccc(-c3[nH]nc4c3C(=O)c3c(NC(=O)NN5CCN(C)CC5)cccc3-4)cc2)CC1 (as salt: TFA) [Example CCXXVI, 3-(4-(4-isopropylpiperazino)phenyl)-5-((4-methylpiperazino)carbamoylamino)indeno[1,2-c]pyrazol-4-one] | 272 °C |
| CN1CCN(C(=O)[C@H]2CC[C@H](c3[nH]nc4c3C(=O)c3c(NC(=O)NN5CCOCC5)cccc3-4)CC2)CC1 (as salt: TFA) [Example CCCIV, 3-(trans-4-(4-methylpiperazinocarbonyl)cyclohexyl)-5-(morpholinocarbamoylamino)indeno[1,2-c]pyrazol-4-one] | 228 °C |
| COc1ccc(-c2[nH]nc3c2C(=O)c2c(NC(=O)Cc4ccc(N=[N+]=[N-])cc4)cccc2-3)cc1 [Example XL, 3-(4-methoxyphenyl)-5-((4-azidophenyl)acetamido)indeno[1,2-c]pyrazol-4-one] | > 300 °C |
| COC(=O)Nc1ccc(CC(=O)Nc2cccc3c2C(=O)c2c-3n[nH]c2-c2ccc(OC)cc2)cc1 [Example XXXVII, 3-(4-methoxyphenyl)-5-((4-(methoxycarbonylamino)phenyl)acetamido) indeno[1,2-c]pyrazol-4-one] | 257 °C |
| CCCc1[nH]nc2c1C(=O)c1c(NC(N)=O)cccc1-2 [Example XCII, 3-(n-propyl)-5-(carbamoylamino)indeno[1,2-c]pyrazol-4-one] | 187 °C |
| Cc1cc(-c2[nH]nc3c2C(=O)c2c(NC(=O)NN4CCN(C)CC4)cccc2-3)c(C)s1 [Example CXXIV, 3-(2,5-dimethyl-3-thienyl)-5-((4-methylpiperazino)carbamoylamino)indeno [1,2-c]pyrazol-4-one] | 250 °C |
| O=C(Nc1cccc2c1C(=O)c1c-2n[nH]c1-c1ccc(C(=O)NC2CCCNC2)s1)NN1CCOCC1 (stereo not shown) (as salt: TFA) [Example CLXVIII, 3-(5-((3-piperidyl)aminocarbonyl)-2-thienyl)-5-(morpholinocarbamoylamino)indeno[1,2-c]pyrazol-4-one] | > 300 °C |
